Measured values from US8399502B2, “Analogs of indole-3-carbinol and their use as agents against infection” (priority 2008, dated 2013).
≈ marks a conversion by molar mass, not a printed value.

Tests used:
Experiment in all cases: microbe, parasite or virus in culture
Assay type in all cases: cell-based
[1] = system: Burkholderia pseudomallei (BP; Gram-negative); details: read-out: MIC BP
[2] = system: Bacillus anthracis (BA; Gram-positive); details: read-out: MIC BA
[3] = system: Brucella abortus (BAB; Gram-negative); details: read-out: MIC BAB
[4] = system: Yersinia pestis (YP; Gram-negative); details: read-out: MIC YP
[5] = system: Burkholderia mallei (BM; Gram-negative); details: read-out: MIC BM
[6] = system: Francisella tularensis (FT; Gram-negative); details: read-out: MIC FT

Row | SMILES | MIC [1] | MIC [2] | MIC [3] | MIC [4] | MIC [5] | MIC [6]
1 | Cc1c2[nH]c3ccc(F)cc3c2cc2c1[nH]c1ccc(F)cc12 | > 16 µg/mL | 0.5 µg/mL (≈ 1.63 µM) | 1 µg/mL (≈ 3.26 µM) | > 16 µg/mL | > 16 µg/mL | 0.5 µg/mL (≈ 1.63 µM)
2 | CCN(CC)CCOc1c2[nH]c3ccc(F)cc3c2cc2c1[nH]c1ccc(F)cc12 |  | 1 µg/mL (≈ 2.45 µM) | 1 µg/mL (≈ 2.45 µM) | > 16 µg/mL |  | 0.5 µg/mL (≈ 1.23 µM)
3 | Fc1ccc2[nH]c3c(OCCN4CCCC4)c4[nH]c5ccc(F)cc5c4cc3c2c1 | > 16 µg/mL | 1 µg/mL (≈ 2.47 µM) | 1 µg/mL (≈ 2.47 µM) | 8 µg/mL (≈ 19.7 µM) | > 16 µg/mL | 0.5 µg/mL (≈ 1.23 µM)
4 | CC(CN(C)C)Oc1c2[nH]c3ccc(F)cc3c2cc2c1[nH]c1ccc(F)cc12 (stereo not shown) |  | 1 µg/mL (≈ 2.54 µM) | 0.5 µg/mL (≈ 1.27 µM) | 16 µg/mL (≈ 40.7 µM) |  | 0.5 µg/mL (≈ 1.27 µM)
5 | FC(F)(F)c1c2[nH]c3ccccc3c2cc2c1[nH]c1ccccc12 | > 16 µg/mL | 1 µg/mL (≈ 3.08 µM) | 2 µg/mL (≈ 6.17 µM) | > 16 µg/mL | > 16 µg/mL | 0.5 µg/mL (≈ 1.54 µM)
6 | COc1c2[nH]c3ccc(F)cc3c2c(N2CCCC2)c2c1[nH]c1ccc(F)cc12 | > 16 µg/mL | 1 µg/mL (≈ 2.55 µM) | 2 µg/mL (≈ 5.11 µM) | > 16 µg/mL | > 16 µg/mL | 0.5 µg/mL (≈ 1.28 µM)
7 | NCCCOc1c2[nH]c3ccc(F)cc3c2cc2c1[nH]c1ccc(F)cc12 | 8 µg/mL (≈ 21.9 µM) | 0.5 µg/mL (≈ 1.37 µM) | 0.5 µg/mL (≈ 1.37 µM) | 2 µg/mL (≈ 5.47 µM) | 8 µg/mL (≈ 21.9 µM) | 0.5 µg/mL (≈ 1.37 µM)
8 | CN(C)CCOc1c2[nH]c3ccc(Cl)cc3c2cc2c1[nH]c1ccc(Cl)cc12 | 16 µg/mL (≈ 38.8 µM) | 0.5 to 1 µg/mL (≈ 1.21 to 2.43 µM) | 0.5 µg/mL (≈ 1.21 µM) | 2 µg/mL (≈ 4.85 µM) | 8 µg/mL (≈ 19.4 µM) | 0.25 µg/mL (≈ 0.606 µM)
9 | CN(C)CCOc1c2[nH]c3ccc(F)cc3c2c(Br)c2c1[nH]c1ccc(F)cc12 | > 8 µg/mL | 0.25 µg/mL (≈ 0.545 µM) | 0.25 µg/mL (≈ 0.545 µM) | > 8 µg/mL | > 8 µg/mL | 0.25 µg/mL (≈ 0.545 µM)
10 | NCCCOc1c2[nH]c3ccc(Cl)cc3c2cc2c1[nH]c1ccc(Cl)cc12 | 8 µg/mL (≈ 20.1 µM) | 0.5 µg/mL (≈ 1.26 µM) | 0.5 µg/mL (≈ 1.26 µM) | 2 µg/mL (≈ 5.02 µM) | 4 µg/mL (≈ 10 µM) | 0.25 to 0.5 µg/mL (≈ 0.628 to 1.26 µM)
11 | NC1CCN(CCCOc2c3[nH]c4ccc(F)cc4c3cc3c2[nH]c2ccc(F)cc23)CC1 |  | 0.5 µg/mL (≈ 1.11 µM) | 0.5 µg/mL (≈ 1.11 µM) | 2 µg/mL (≈ 4.46 µM) |  | 0.125 to 0.5 µg/mL (≈ 0.279 to 1.11 µM)
12 | N[C@H]1CCN(CCCOc2c3[nH]c4ccc(F)cc4c3cc3c2[nH]c2ccc(F)cc23)C1 |  | 1 µg/mL (≈ 2.3 µM) | 1 µg/mL (≈ 2.3 µM) | 4 µg/mL (≈ 9.21 µM) |  | 0.5 µg/mL (≈ 1.15 µM)
13 | NCCOc1c2[nH]c3ccc(Cl)cc3c2cc2c1[nH]c1ccc(Cl)cc12 | 8 µg/mL (≈ 20.8 µM) | 2 µg/mL (≈ 5.2 µM) | 0.5 µg/mL (≈ 1.3 µM) | 2 µg/mL (≈ 5.2 µM) | 4 µg/mL (≈ 10.4 µM) | 0.5 µg/mL (≈ 1.3 µM)
14 | CN(C)CCCc1c2[nH]c3ccc(F)cc3c2cc2c1[nH]c1ccc(F)cc12 | > 16 µg/mL | 1 µg/mL (≈ 2.65 µM) | 1 µg/mL (≈ 2.65 µM) | 8 µg/mL (≈ 21.2 µM) | 16 µg/mL (≈ 42.4 µM) | 1 µg/mL (≈ 2.65 µM)
15 | NC1CCN(CCCOc2c3[nH]c4ccc(Cl)cc4c3cc3c2[nH]c2ccc(Cl)cc23)CC1 | > 16 µg/mL | 2 µg/mL (≈ 4.15 µM) | 1 µg/mL (≈ 2.08 µM) | 4 µg/mL (≈ 8.31 µM) | 16 µg/mL (≈ 33.2 µM) | 1 µg/mL (≈ 2.08 µM)
16 | NC1CCN(CCOc2c3[nH]c4ccc(Cl)cc4c3cc3c2[nH]c2ccc(Cl)cc23)CC1 |  | 2 µg/mL (≈ 4.28 µM) | 1 µg/mL (≈ 2.14 µM) | 16 µg/mL (≈ 34.2 µM) |  | 0.5 µg/mL (≈ 1.07 µM)
17 | OC1CCN(CCCOc2c3[nH]c4ccc(F)cc4c3cc3c2[nH]c2ccc(F)cc23)C1 (stereo not shown) | 8 µg/mL (≈ 18.4 µM) | 0.5 µg/mL (≈ 1.15 µM) | 0.251 µg/mL (≈ 0.576 µM) | 8 µg/mL (≈ 18.4 µM) | 8 µg/mL (≈ 18.4 µM) | 0.5 µg/mL (≈ 1.15 µM)
18 | Clc1ccc2[nH]c3c(OCCCNC4CCNCC4)c4[nH]c5ccc(Cl)cc5c4cc3c2c1 | 8 µg/mL (≈ 16.6 µM) | 1 µg/mL (≈ 2.08 µM) | 1 µg/mL (≈ 2.08 µM) | 2 µg/mL (≈ 4.15 µM) | 4 µg/mL (≈ 8.31 µM) | 1 µg/mL (≈ 2.08 µM)

Row | SMILES | MIC [1] | MIC [2] | MIC [3] | MIC [4] | MIC [5] | MIC [6]
19 | Clc1ccc2[nH]c3c(OCCCn4cncn4)c4[nH]c5ccc(Cl)cc5c4cc3c2c1 |  | 0.5 µg/mL (≈ 1.11 µM) |  |  |  | 0.25 µg/mL (≈ 0.555 µM)
20 | Clc1ccc2[nH]c3c(OCCCn4cnnc4)c4[nH]c5ccc(Cl)cc5c4cc3c2c1 |  | 0.25 µg/mL (≈ 0.555 µM) |  |  |  | 0.5 µg/mL (≈ 1.11 µM)
21 | CN(C)C1CCN(CCOc2c3[nH]c4ccc(F)cc4c3cc3c2[nH]c2ccc(F)cc23)C1 (stereo not shown) |  | 1 µg/mL (≈ 2.23 µM) | 0.5 µg/mL (≈ 1.11 µM) | > 8 µg/mL |  | 0.5 µg/mL (≈ 1.11 µM)
22 | OC1CN(CCCOc2c3[nH]c4ccc(Cl)cc4c3cc3c2[nH]c2ccc(Cl)cc23)C1 |  | 0.5 µg/mL (≈ 1.1 µM) | 1 µg/mL (≈ 2.2 µM) | 4 µg/mL (≈ 8.8 µM) |  | 0.5 µg/mL (≈ 1.1 µM)
23 | CC(C)/N=C(/NCCCOc1c2[nH]c3ccc(F)cc3c2cc2c1[nH]c1ccc(F)cc12)NC(C)C |  | 0.5 µg/mL (≈ 1.02 µM) | 1 µg/mL (≈ 2.03 µM) | 4 µg/mL (≈ 8.14 µM) |  | 1 µg/mL (≈ 2.03 µM)
24 | CC/N=C(/NCCCOc1c2[nH]c3ccc(Cl)cc3c2cc2c1[nH]c1ccc(Cl)cc12)NCCCN(C)C | 4 µg/mL (≈ 7.23 µM) | ≤ 0.25 µg/mL | 1 µg/mL (≈ 1.81 µM) | 1 µg/mL (≈ 1.81 µM) | 4 µg/mL (≈ 7.23 µM) | 1 µg/mL (≈ 1.81 µM)
25 | Clc1ccc2[nH]c3c(OCCC4CCNCC4)c4[nH]c5ccc(Cl)cc5c4cc3c2c1 | > 8 µg/mL | ≤ 0.25 µg/mL | ≤ 0.25 µg/mL | 1 µg/mL (≈ 2.21 µM) | 4 µg/mL (≈ 8.84 µM) | 0.5 µg/mL (≈ 1.11 µM)
26 | Fc1ccc2[nH]c3c(OC4CCNC4)c4[nH]c5ccc(F)cc5c4cc3c2c1 (stereo not shown) | 4 µg/mL (≈ 10.6 µM) | ≤ 0.25 µg/mL | ≤ 0.25 µg/mL | 1 µg/mL (≈ 2.65 µM) | 2 µg/mL (≈ 5.3 µM) | 0.5 µg/mL (≈ 1.32 µM)
27 | Clc1ccc2[nH]c3c(OCCCNCc4c[nH]c5ccccc45)c4[nH]c5ccc(Cl)cc5c4cc3c2c1 | > 8 µg/mL | 1 µg/mL (≈ 1.9 µM) | 0.5 µg/mL (≈ 0.948 µM) | 2 µg/mL (≈ 3.79 µM) | > 8 µg/mL | 1 µg/mL (≈ 1.9 µM)
28 | Clc1ccc2[nH]c3c(OCCCNCc4ccc[nH]4)c4[nH]c5ccc(Cl)cc5c4cc3c2c1 | > 8 µg/mL | 0.5 µg/mL (≈ 1.05 µM) | 0.5 µg/mL (≈ 1.05 µM) | 2 µg/mL (≈ 4.19 µM) | > 8 µg/mL | 0.5 µg/mL (≈ 1.05 µM)
29 | Clc1ccc2[nH]c3c(OCCCNCc4ncc[nH]4)c4[nH]c5ccc(Cl)cc5c4cc3c2c1 | > 8 µg/mL | 1 µg/mL (≈ 2.09 µM) | 0.5 µg/mL (≈ 1.05 µM) | 2 µg/mL (≈ 4.18 µM) | > 8 µg/mL | 1 µg/mL (≈ 2.09 µM)
30 | Fc1ccc2[nH]c3c(OC[C@H]4CCCN4)c4[nH]c5ccc(F)cc5c4cc3c2c1 | 8 µg/mL (≈ 20.4 µM) | 0.5 µg/mL (≈ 1.28 µM) | 0.5 µg/mL (≈ 1.28 µM) | 2 µg/mL (≈ 5.11 µM) | 8 µg/mL (≈ 20.4 µM) | 0.5 µg/mL (≈ 1.28 µM)
31 | Fc1ccc2[nH]c3c(OC4CCCNC4)c4[nH]c5ccc(F)cc5c4cc3c2c1 (stereo not shown) | > 8 µg/mL | 0.5 µg/mL (≈ 1.28 µM) | 0.5 µg/mL (≈ 1.28 µM) | 4 µg/mL (≈ 10.2 µM) | 8 µg/mL (≈ 20.4 µM) | 1 µg/mL (≈ 2.55 µM)
32 | N[C@H]1CC[C@@H](Oc2c3[nH]c4ccc(F)cc4c3cc3c2[nH]c2ccc(F)cc23)CC1 | > 8 µg/mL | 0.5 µg/mL (≈ 1.23 µM) | 0.5 µg/mL (≈ 1.23 µM) | 4 µg/mL (≈ 9.87 µM) | > 8 µg/mL | 1 µg/mL (≈ 2.47 µM)
33 | Clc1ccc2[nH]c3c(OCCCNCc4cnc[nH]4)c4[nH]c5ccc(Cl)cc5c4cc3c2c1 |  | 0.5 µg/mL (≈ 1.05 µM) | 0.5 µg/mL (≈ 1.05 µM) | 4 µg/mL (≈ 8.36 µM) |  | 1 µg/mL (≈ 2.09 µM)
34 | NCCOc1c2[nH]c3ccc(F)cc3c2cc2c1[nH]c1ccc(F)cc12 | 16 µg/mL (≈ 45.5 µM) | 4 µg/mL (≈ 11.4 µM) | 1 µg/mL (≈ 2.85 µM) | 4 µg/mL (≈ 11.4 µM) | 8 µg/mL (≈ 22.8 µM) | 2 µg/mL (≈ 5.69 µM)
35 | Clc1ccc2[nH]c3c(O[C@@H]4CCNC4)c4[nH]c5ccc(Cl)cc5c4cc3c2c1 | > 8 µg/mL | ≤ 0.25 µg/mL | ≤ 0.25 µg/mL | 1 µg/mL (≈ 2.44 µM) | 2 µg/mL (≈ 4.87 µM) | ≤ 0.25 µg/mL
